# Assays:
# downy bromegrass = experiment: Test C postemergence herbicide test; format: in vivo, Bromus tectorum
# Procedure, shortened: (§1)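 After a postemergence application at 1 to 4 leaves (plants 2–18 cm high), or at 2 leaves for barnyardgrass in flooded paddy, plants stayed in the greenhouse for 12 to 14 days. Damage was then judged visually relative to control plants, with 100 indicating complete control.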
# windgrass = experiment: Test C postemergence herbicide test; format: in vivo, Apera spica-venti; settings: scale 0 to 100; for Plant response rating, Windgrass: postemergence
# Procedure, shortened: as §1
# winter barley = experiment: Test C postemergence herbicide test; format: in vivo, Hordeum vulgare
# Procedure, shortened: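 Ratings (0 = no effect, 100 = complete control) come from visual comparison with untreated plants after 12 to 14 days in the greenhouse. Treatment was postemergence at the 1- to 4-leaf stage (2–18 cm), or at the 2-leaf stage for the flooded paddy barnyardgrass.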
# chickweed = experiment: Test C postemergence herbicide test; format: in vivo, Stellaria media
# Procedure, shortened: as §1
# wild oat = experiment: Test C postemergence herbicide test; format: in vivo, Avenafatua
# Procedure, shortened: as §1
# wheat = experiment: Test C postemergence herbicide test; format: in vivo, Triticum aestivum
# Procedure, shortened: as §1
# canarygrass = experiment: Test C postemergence herbicide test; format: in vivo, Phalaris minor
# Procedure, shortened: as §1
# Italian ryegrass = experiment: Test C postemergence herbicide test; format: in vivo, Lolium multiflorum
# Procedure, shortened: as §1
# blackgrass = experiment: Test C postemergence herbicide test; format: in vivo, Alopecurus myosuroides
# Procedure, shortened: as §1
# pigweed = experiment: Test C pre-/postemergence herbicide test; format: in vivo, Amaranthus retroflexus
# Procedure, shortened: (§2)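 Emerged plants at the 1- to 4-leaf stage (2–18 cm), or freshly planted seeds, received test chemicals in a non-phytotoxic solvent mixture with surfactant. Response was visually scored against controls after 12 to 14 days in the greenhouse, on a 0 (no effect) to 100 (complete control) scale.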
# green foxtail = experiment: Test C postemergence herbicide test; format: in vivo, Setaria viridis
# Procedure, shortened: as §1
# yellow nutsedge = experiment: Test C pre-/postemergence herbicide test; format: in vivo, Cyperus esculentus
# Procedure, shortened: as §2
# [1] = Postemergence, 500 g ai/ha, scale 0 to 100
# [2] = Postemergence, 250 g ai/ha, scale 0 to 100, 0 no effect, 100 complete control
# [3] = postemergence, 125 g ai/ha, scale 0 to 100
# [4] = postemergence, 62 g ai/ha, scale 0 to 100
smiles,measurement,setting,value
CCn1nc(C(C)(C)C)cc1C(=O)Nc1cccc(OC(F)(F)F)c1 [Compound 272],"Bromegrass, Downy plant response rating",downy bromegrass; [1],65
same,"Plant response rating, Bromegrass, Downy",downy bromegrass; [2],60
same,"Plant response rating, Bromegrass, Downy",downy bromegrass; [3],55
same,"Plant response rating, Bromegrass, Downy",downy bromegrass; [4],30
same,Windgrass plant response rating,"windgrass; Postemergence, 500 g ai/ha",85
same,"Plant response rating, Windgrass",windgrass; 125 g ai/ha,70
same,"Plant response rating, Windgrass",windgrass; 62 g ai/ha,60
same,"Barley, Winter plant response rating",winter barley; [1],35
same,"Plant response rating, Barley, Winter",winter barley; [2],35
same,"Plant response rating, Barley, Winter","winter barley; postemergence, 125 g ai/ha, scale 0 to 100 (0 no effect, 100 complete control)",35
same,"Plant response rating, Barley, Winter","winter barley; postemergence, 62 g ai/ha, scale 0 to 100 (0 no effect, 100 complete control)",35
same,Chickweed plant response rating,chickweed; [1],100
same,"Plant response rating, Chickweed",chickweed; [2],100
same,"Plant response rating, Chickweed",chickweed; [3],100
same,"Plant response rating, Chickweed",chickweed; [4],95
same,"Oat, Wild plant response rating",wild oat; [1],65
same,"Plant response rating, Oat, Wild",wild oat; [2],55
same,"Plant response rating, Oat, Wild",wild oat; [3],45
same,"Plant response rating, Oat, Wild",wild oat; [4],40
same,Wheat plant response rating,wheat; [1],35
same,"Plant response rating, Wheat",wheat; [2],35
same,"Plant response rating, Wheat",wheat; [3],35
same,"Plant response rating, Wheat",wheat; [4],30
same,Canarygrass plant response rating,canarygrass; [1],55
same,"Plant response rating, Canarygrass",canarygrass; [2],40
same,"Plant response rating, Canarygrass",canarygrass; [3],35
same,"Plant response rating, Canarygrass",canarygrass; [4],35
same,"Ryegrass, Italian plant response rating",Italian ryegrass; [1],60
same,"Plant response rating, Ryegrass, Italian",Italian ryegrass; [2],45
same,"Plant response rating, Ryegrass, Italian",Italian ryegrass; [3],45
same,"Plant response rating, Ryegrass, Italian",Italian ryegrass; [4],30
same,Blackgrass plant response rating,blackgrass; [1],65
same,"Plant response rating, Blackgrass",blackgrass; [2],45
same,"Plant response rating, Blackgrass",blackgrass; [3],45
same,"Plant response rating, Blackgrass",blackgrass; [4],35
same,Pigweed plant response rating,pigweed; [1],100
same,"Plant response rating, Pigweed",pigweed; [2],100
same,"Plant response rating, Pigweed",pigweed; [3],100
same,"Plant response rating, Pigweed",pigweed; [4],100
same,"Foxtail, Green plant response rating",green foxtail; [1],60
same,"Plant response rating, Foxtail, Green",green foxtail; [2],45
same,"Plant response rating, Foxtail, Green",green foxtail; [3],40
same,"Plant response rating, Foxtail, Green",green foxtail; [4],35
same,"Nutsedge, Yellow plant response rating",yellow nutsedge; [1],0
same,"Plant response rating, Nutsedge, Yellow",yellow nutsedge; [2],0
same,"Plant response rating, Nutsedge, Yellow",yellow nutsedge; [3],0
same,"Plant response rating, Nutsedge, Yellow",yellow nutsedge; [4],0

# — patent US20060069132A1, “Azolecarboxamide herbicides” (priority 2004, published 2006)
